#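 Grown in 96-well plates, cells were treated for 48 hours with each compound at five concentrations. Insufficient inhibition: endpoint recorded as highest concentration tested. GI50 is the concentration that inhibits growth by half. Definition used: TGI = concentration required for complete inhibition of growth.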
# Assays:
# Test in all cases: inhibition of tumour cell growth, NCI panel, 48 h
# [1] = test system: 786-0 renal
# [2] = test system: A498 renal
# [3] = test system: A549 NSCLC
# [4] = test system: ACHN renal
# [5] = test system: BT-549 breast
# [6] = test system: CAKI-1 renal
# [7] = test system: CCRF-CEM leukemia
# [8] = test system: COLO 205 colon
# [9] = test system: DU-145 prostate
# [10] = test system: EKVX NSCLC
# [11] = test system: HCC-2998 colon
# [12] = test system: HCT-15 colon
# [13] = test system: HL-60(TB) leukemia
# [14] = test system: HOP-62 NSCLC
# [15] = test system: HOP-92 NSCLC
# [16] = test system: HS 578T breast
# [17] = test system: HT29 colon
# [18] = test system: IGROV1 ovarian
# [19] = test system: K-562 leukemia
# [20] = test system: KM12 colon
# [21] = test system: M14 melanoma
# [22] = test system: MALME-3M melanoma
# [23] = test system: MOLT-4 leukemia
# [24] = test system: NCI-H226 lung
# [25] = test system: NCI-H23 lung
# [26] = test system: NCI-H522 lung
# [27] = test system: NCI/ADR-RES ovarian
# [28] = test system: OVCAR-3 ovarian
# [29] = test system: OVCAR-4 ovarian
# [30] = test system: OVCAR-5 ovarian
# [31] = test system: OVCAR-8 ovarian
# [32] = test system: PC-3 prostate
# [33] = test system: RPMI-8226 leukemia
# [34] = test system: RXF 393 renal
# [35] = test system: SF-268 CNS
# [36] = test system: SF-295 CNS
# [37] = test system: SF-539 CNS
# [38] = test system: SK-MEL-2 melanoma
# [39] = test system: SK-MEL-28 melanoma
# [40] = test system: SK-MEL-5 melanoma
# [41] = test system: SK-OV-3 ovarian
# [42] = test system: SN12C renal
# [43] = test system: SNB-19 CNS
# [44] = test system: SNB-75 CNS
# [45] = test system: SR leukemia
# [46] = test system: T-47D breast
# [47] = test system: TK-10 renal
# [48] = test system: U251 CNS
# [49] = test system: UACC-257 melanoma
# [50] = test system: UACC-62 melanoma
# [51] = test system: UO-31 renal
smiles,measurement,setting,value
COc1ccc(-c2nn(-c3cccc(Cl)c3)cc2-c2cc(-c3ccccc3)nc(N)n2)cc1,GI50,[1],4.94 µM
same,TGI,[1],26.4 µM
same,GI50,[2],2.21 µM
same,TGI,[2],11.9 µM
same,GI50,[3],2.7 µM
same,TGI,[3],13.7 µM
same,GI50,[4],4.58 µM
same,TGI,[4],15.8 µM
same,GI50,[5],4.31 µM
same,TGI,[5],16.9 µM
same,GI50,[6],1.77 µM
same,TGI,[6],10.7 µM
same,GI50,[7],2.13 µM
same,TGI,[7],6.63 µM
same,GI50,[8],2.09 µM
same,TGI,[8],3.81 µM
same,GI50,[9],10.5 µM
same,TGI,[9],22.3 µM
same,GI50,[10],2.32 µM
same,TGI,[10],15 µM
same,GI50,[11],2.25 µM
same,TGI,[11],4.53 µM
same,GI50,[12],3.6 µM
same,TGI,[12],16.1 µM
same,GI50,[13],2.53 µM
same,TGI,[13],6.21 µM
same,GI50,[14],2.5 µM
same,TGI,[14],6.41 µM
same,GI50,[15],1.06 µM
same,TGI,[15],4.77 µM
same,GI50,[16],3.03 µM
same,TGI,[16],18.4 µM
same,GI50,[17],2.07 µM
same,TGI,[17],4.32 µM
same,GI50,[18],4.2 µM
same,TGI,[18],16.5 µM
same,GI50,[19],1.92 µM
same,TGI,[19],5.37 µM
same,GI50,[20],2.05 µM
same,TGI,[20],4.39 µM
same,GI50,[21],2.69 µM
same,TGI,[21],13.2 µM
same,GI50,[22],8.95 µM
same,TGI,[22],31.8 µM
same,GI50,[23],2.03 µM
same,TGI,[23],5.61 µM
same,GI50,[24],4.99 µM
same,TGI,[24],22 µM
same,GI50,[25],2.83 µM
same,TGI,[25],10.4 µM
same,GI50,[26],1.88 µM
same,TGI,[26],3.53 µM
same,GI50,[27],8.72 µM
same,TGI,[27],31 µM
same,GI50,[28],4.53 µM
same,TGI,[28],15.3 µM
same,GI50,[29],2.42 µM
same,TGI,[29],9.64 µM
same,GI50,[30],2.94 µM
same,TGI,[30],11 µM
same,GI50,[31],1.9 µM
same,TGI,[31],3.78 µM
same,GI50,[32],1.6 µM
same,TGI,[32],6.56 µM
same,GI50,[33],2.65 µM
same,TGI,[33],9.17 µM
same,GI50,[34],2.64 µM
same,TGI,[34],8.47 µM
same,GI50,[35],3.76 µM
same,TGI,[35],18.9 µM
same,GI50,[36],3.12 µM
same,TGI,[36],11.7 µM
same,GI50,[37],11 µM
same,TGI,[37],27.7 µM
same,GI50,[38],3.23 µM
same,TGI,[38],10.7 µM
same,GI50,[39],12.4 µM
same,TGI,[39],42.1 µM
same,GI50,[40],7.88 µM
same,TGI,[40],28.4 µM
same,GI50,[41],13.5 µM
same,TGI,[41],29.2 µM
same,GI50,[42],1.9 µM
same,TGI,[42],5.02 µM
same,GI50,[43],12.7 µM
same,TGI,[43],43.8 µM
same,GI50,[44],4.32 µM
same,TGI,[44],22 µM
same,GI50,[45],2.03 µM
same,TGI,[45],5.21 µM
same,GI50,[46],4.49 µM
same,TGI,[46],17.1 µM
same,GI50,[47],11.8 µM
same,TGI,[47],24.1 µM
same,GI50,[48],1.59 µM
same,TGI,[48],3.03 µM
same,GI50,[49],2.58 µM
same,TGI,[49],8.51 µM
same,GI50,[50],8.06 µM
same,TGI,[50],26 µM
same,GI50,[51],10 µM
same,TGI,[51],26.5 µM
